Patent US8173593B2, “Methods and compositions for emergency contraception using endothelin receptor antagonists” (The Population Council, Inc., priority 2005, dated 2012)

Tests used:
superovulated mice [1] = assay: histological sections of ovaries collected 18 hours after hCG injection; assay type: in vivo
Description: (§1) BQ788 was further tested to examine the manner in which this ETB antagonist reduced the number of oocytes. Histological sections of ovaries collected at 18 hours after hCG injection in superovulated mice that received either vehicle or BQ788 through i/p at 8 hours after hCG, were examined and found to have striking differences in the number of corpus lutea (photo not shown).

superovulated mice [2] = assay: oocyte count after antagonist injection during superovulation; assay type: in vivo; conditions: for decrease in number of oocytes: time effect
Description: Pharmacological blockers of the endothelin receptor system were implemented to elucidate the role of ET-2 during superovulation. JKC301 (ETRA antagonist) and BQ788 (ETB antagonist) were injected 6 hours after hCG injection and an oocyte count was tabulated. […] BQ788 treatment was further investigated and found to have a time effect. BQ788 posted a 39%, 58%, and 66% decrease in number of oocytes at 4, 6 and 8 hours, respectively, after hCG injection.
as §1

endothelin-2 = assay: inhibition of endothelin-2 function

CCCC[C@@H](NC(=O)[C@@H](Cc1cn(C(=O)OC)c2ccccc12)NC(=O)[C@H](CC(C)(C)C)NC(=O)N1[C@H](C)CCC[C@@H]1C)C(=O)O [BQ788, N-cis-2,6-dimethylpiperidinocarbonyl-L-gamma-methylleucyl-D-1-methoxycarbonyltryptophanyl-D-norleucine]
inhibition of ovulation (superovulated mice [1]; given at 8 hours, a stage very close to the ovulation): inhibition of ovulation by blocking follicle rupture in the ovary
number of corpus lutea and unruptured follicles in ovary sections (superovulated mice [1]; i/p at 8 hours after hCG, ovaries collected at 18 hours after hCG, versus vehicle): few corpus lutea and numerous unruptured follicles
decrease in the number of oocytes (superovulated mice [2]; antagonist injected 6 hours after hCG injection, comparison of JKC301 and BQ788): 65%
decrease in number of oocytes (superovulated mice [2]; BQ788 given 4 hours after hCG injection): 39%
decrease in number of oocytes (superovulated mice [2]; BQ788 given 6 hours after hCG injection): 58%
decrease in number of oocytes (superovulated mice [2]; BQ788 given 8 hours after hCG injection): 66%
function of endothelin-2 (endothelin-2): inhibits function of endothelin-2
